Key:
[1] = In vitro cytotoxicity assay (MTT cell viability) in HepG2 cells; format: cell-based, human; details: human
Outline: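 Read-out: MTT formazan absorbance at 492 nm, expressed as % of vehicle signal; CC50 by 4-parameter non-linear regression. Parental HepG2, 20,000 cells/well, treated 7 days with compound from 30 μM down to 1.0 nM.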

[2] = tested on: HBV replication in HepAD38 cells; assay: Anti-HBV replication assay in HepAD38 cells (QPCR of extracellular HBV DNA); format: cell-based, HBV (genotype D, serotype ayw); details: Hepatitis B virus, 168 h, 7 days incubation, extracellular HBV DNA by QPCR, read-out: Anti-HBV EC50
Outline: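 HepAD38 cells (HepG2 carrying a tet-repressible HBV genotype D genome) were seeded in tetracycline-free medium and treated next day with compound […] for 7 days. Supernatant HBV DNA was measured by QPCR against a standard curve; EC50 came from 4-parameter fits of inhibition versus DMSO control.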

SMILES | CC50 at 7 days [1] | EC50 [2]
Cc1nc2c(s1)C(NC(=O)C(=O)c1c(C)c(C(=O)Nc3ccnc(F)c3)c(C)n1C)CCC2 (stereo not shown) [Example 607, N-(2-fluoropyridin-4-yl)-1,2,4-trimethyl-5-(2-((2-methyl-4,5,6,7-tetrahydrobenzo[d]thiazol-7-yl)amino)-2-oxoacetyl)-1H-pyrrole-3-carboxamide] | > 30000 nM | < 50 nM
Cc1cc(NC(=O)c2c(C)c(C(=O)C(=O)NC(C)(C)C(=O)O)n(C)c2C)ccc1F [Example 29, 2-(2-(4-((4-fluoro-3-methylphenyl)carbamoyl)-1,3,5-trimethyl-1H-pyrrol-2-yl)-2-oxoacetamido)-2-methylpropanoic acid] | > 30000 nM | 500 to 1000 nM
Cc1cc(NC(=O)c2c(C)c(C(=O)C(=O)N[C@@H](C)C(F)(F)F)n3c2CCCC3)cnc1F [Example 470, (S)-N-(6-fluoro-5-methylpyridin-3-yl)-2-methyl-3-(2-oxo-2-((1,1,1-trifluoropropan-2-yl)amino)acetyl)-5,6,7,8-tetrahydroindolizine--1 carboxamide] | 5000 to 30000 nM | 500 to 1000 nM
Cc1c(C(=O)Nc2ccc(F)c(F)c2)c2n(c1C(=O)C(=O)Nc1ccc(B(O)O)cc1)CCCC2 [Example 738, (4-(2-(1-((3,4-difluorophenyl)carbamoyl)-2-methyl-5,6,7,8-tetrahdyroindolizin-3-yl)-2-oxoacetamido)phenyl)boronic acid] | > 30000 nM | 50 to 499 nM
Cc1c(C(=O)Nc2cccc(Cl)c2)c(C)n(C)c1C(=O)C(=O)N[C@]1(C)CC[C@@H](O)CC1 [Example 615, N-(3-chlorophenyl)-5-(2-(((1r,4r)-4-hydroxy-1-methylcyclohexyl)amino)-2-oxoacetyl)-1,2,4-trimethyl-1H-pyrrole-3-carboxamide] | > 30000 nM | < 50 nM
Cc1cc(NC(=O)c2c(C)c(C(=O)C(=O)Nc3ccc(F)nc3)n(C)c2C)cnc1F [Example 340, N-(6-fluoro-5-methylpyridin-3-yl)-5-(2-((6-fluoropyridin-3-yl)amino)-2-oxoacetyl)-1,2,4-trimethyl-1H-pyrrole-3-carboxamide] | > 30000 nM | 500 to 1000 nM
Cc1cc(NC(=O)c2c(C)c(C(=O)C(=O)N[C@H]3CC[C@@H](C(=O)O)CC3)n(C)c2C)ccc1F [Example 279, (1s,4s)-4-(2-(4-((4-fluoro-3-methylphenyl)carbamoyl)-1,3,5-trimethyl-1H-pyrrol-2-yl)-2-oxoacetamido)cyclohexane-1-carboxylic acid] | > 30000 nM | 50 to 499 nM
Cc1cc(NC(=O)c2c(C)c(C(=O)C(=O)NC3CC4CCC(C3)S4(=O)=O)n(C)c2C)ccc1F (stereo not shown) [Example 624, 5-(2-((8,8-dioxido-8-thiabicyclo[3.2.1]ctan-3-yl)amino)-2-oxoacetyl)-N-(4-fluoro-3-methylphenyl)-1,2,4-trimethyl-1H-pyrrole-3-carboxamide] | > 30000 nM | < 50 nM
Cc1c(C(=O)Nc2ccc(F)c(F)c2)c2n(c1C(=O)C(=O)NC1(c3nn[nH]n3)CCCC1)CCCC2 [Example 743, 3-(22-((1-(2H-tetrazol-5-yl)cyclopentyl)amino)-2-oxoacetyl)-N-(3,4-difluorophenyl)-2-methyl-5,6,7,8-tetrahydroindolizine-1-carboxamide] | > 30000 nM | 50 to 499 nM
Cc1c(C(=O)Nc2ccc(F)c(Cl)c2)c(C)n(C)c1C(=O)C(=O)N[C@]1(C)CC[C@@H](O)CC1 [Example 333, N-(3-chloro-4-fluorophenyl)-5-(2-(((1r,4r)-4-hydroxy-1-methylcyclohexyl)amino)-2-oxoacetyl)-1,2,4-trimethyl-1H-pyrrole-3-carboxamide] | > 30000 nM | < 50 nM
CCOC(=O)[C@H](CO)NC(=O)C(=O)c1c(C)c(C(=O)Nc2ccc(F)c(C)c2)c(C)n1C [Example 25, ethyl (2-(4-((4-fluoro-3-methylphenyl)carbamoyl)-1,3,5-trimethyl-1H-pyrrol-2-yl)-2-oxoacetyl)-L-serinate] | > 30000 nM | 50 to 499 nM
Cc1cc(NC(=O)c2c(C)c(C(=O)C(=O)Nc3cc(F)[nH]c(=O)c3)n(C)c2C)ccc1F [Example 674, 5-(2-((6-fluoro-2-oxo-1,2-dihydropyridin-4-yl)amino)-2-oxoacetyl)-N-(4-fluoro-3-methylphenyl)-1,2,4-trimethyl-1H-pyrrole-3-carboxamide] | 5000 to 30000 nM | 50 to 499 nM
O=C(N[C@H]1C[C@H](O)C1)C(=O)c1c(Cl)c(C(=O)Nc2ccc(F)c(F)c2)c2n1CCCC2 [Example 533, 2-chloro-N-(3,4-difluorophenyl)-3-(2-(((1r,3r)-3-hydroxycyclobutyl)amino)-2-oxoacetyl)-5,6,7,8-tetrahydroindolizine-1-carboxamide] | > 30000 nM | 500 to 1000 nM
Cc1cc(NC(=O)c2c(C)c(C(=O)C(=O)NCC(C)(O)c3cccs3)n(C)c2C)ccc1F (stereo not shown) [Example 647, N-(4-fluoro-3-methylphenyl)-5-(2-((2-hydroxy-2-(thiophen-2-yl)propyl)amino)-2-oxoacetyl)-1,2,4-trimethyl-1H-pyrrole-3-carboxamide] | > 30000 nM | < 50 nM
Cc1c(C(=O)Nc2ccc(F)c(C#N)c2)c2n(c1C(=O)C(=O)NC(C)(C)C)CCCC2 [Example 435, 3-(2-(tert-butylamino)-2-oxoacetyl)-N-(3-cyano-4-fluorophenyl)-2-methyl-5,6,7,8-tetrahydroindolizine-1-carboxamide] | 5000 to 30000 nM | > 1000 nM
CC(=O)N1CCC(NC(=O)C(=O)c2c(C)c(C(=O)Nc3ccc(F)c(C)c3)c(C)n2C)CC1 [Example 354, 5-(2-((1-acetylpiperidin-4-yl)amino)-2-oxoacetyl)-N-(4-fluoro-3-methylphenyl)-1,2,4-trimethyl-1H-pyrrole-3-carboxamide] | > 30000 nM | < 50 nM
Cc1cc(NC(=O)c2cc(C(=O)C(=O)NC[C@@H](O)CO)n3c2CCCC3)ccc1F [Example 415, (R)-3-(2-((2,3-dihydroxypropyl)amino)-2-oxoacetyl)-N-(4-fluoro-3-methylphenyl)-5,6,7,8-tetrahydroindolizine-1-carboxamide] | > 30000 nM | > 1000 nM
Cc1noc([C@H](C)NC(=O)C(=O)c2c(Cl)c(C(=O)Nc3ccc(F)c(F)c3)c3n2CCC3)n1 [Example 568, (S)-6-chloro-N-(3,4-difluorophenyl)-5-(2-((1-(3-methyl-1,2,4-oxadiazol-5-yl)ethyl)amino)-2-oxoacetyl)-2,3-dihydro-1H-pyrrolizine-7-carboxamide] | 5000 to 30000 nM | < 50 nM
Cc1cnc(C(C)(C)NC(=O)C(=O)c2cc(C(=O)Nc3ccc(F)c(C)c3)c3n2CCCC3)s1 [Example 413, N-(4-fluoro-3-methylphenyl)-3-(2-((2-(5-methylthiazol-2-yl)propan-2-yl)amino)-2-oxoacetyl)-5,6,7,8-tetrahydroindolizine-1-carboxamide] | > 30000 nM | 50 to 499 nM
Cc1cc(NC(=O)c2c(C)c(C(=O)C(=O)NC(C)(C)C)n(C)c2Cl)ccc1F [Example 386, 5-(2-(tert-butylamino)-2-oxoacetyl)-2-chloro-N-(4-fluoro-3-methylphenyl)-1,4-dimethyl-1H-pyrrole-3-carboxamide] | 5000 to 30000 nM | > 1000 nM
Cc1cc(NC(=O)c2c(C)c(C(=O)C(=O)NCC(C)(C)CO)n(C)c2C)ccc1F [Example 65, N-(4-fluoro-3-methylphenyl)-5-(2-((3-hydroxy-2,2-dimethylpropyl)amino)-2-oxoacetyl)-1,2,4-trimethyl-1H-pyrrole-3-carboxamide] | > 30000 nM | < 50 nM
Cc1cc(NC(=O)c2c(C)c(C(=O)C(=O)NC3CCSCC3)n(C)c2C)ccc1F [Example 223, N-(4-fluoro-3-methylphenyl)-1,2,4-trimethyl-5-(2-oxo-2-((tetrahydro-2H-thiopyran-4-yl)amino)acetyl)-1H-pyrrole-3-carboxamide] | 5000 to 30000 nM | < 50 nM
Cc1cc(NC(=O)c2c(C)c(C(=O)C(=O)NCc3cnc(N)s3)n3c2CCCC3)cnc1F [Example 473, 3-(2-(((2-aminothiazol-5-yl)methyl)amino)-2-oxoacetyl)-N-(6-ffluoro-5-methylpyridin-3-yl)-2-methyl-5,,6,7,8-tetrahydroindolizine--1 carboxamide] | > 30000 nM | 500 to 1000 nM
Cc1cc(NC(=O)c2cc(C(=O)C(=O)N3CCc4nc(N)sc4C3)n3c2CCCC3)ccc1F [Example 421, 3-(2-(2-amino-6,7-dihydrothiazolo[5,4-c]pyridin-5(4H)-yl)-2-oxoacetyl)-N-(4-fluoro-3-methylphenyl)-5,6,7,8-tetrahydroindolizine-1-carboxamide] | > 30000 nM | > 1000 nM
Cc1cc(NC(=O)c2cc(C(=O)C(=O)NC3(C)COC3)n3c2CCCC3)ccc1F [Example 405, N-(4-fluoro-3-metthylphenyl)-3-(2-((3-methyloxetan-3-yl)amino)-2-oxoacetyl)-5,6,7,8-tetrahydroindolizine-1-carboxamide] | > 30000 nM | 50 to 499 nM
Cc1c(C(=O)Nc2cccc(Cl)c2)c(C)n(C)c1C(=O)C(=O)N[C@@H]1CCC[C@@H](O)C1 [Example 689, N-(3-chlorophenyl)-5-(2-(((1R,3R)-3-hydroxycyclohexyl)amino)-2-oxoacetyl)-1,2,4-trimethyl-1H-pyrrole-3-carboxamide] | > 30000 nM | < 50 nM

Reference: patent US20190375708A1 (VenatoRx Pharmaceuticals, Inc., priority 2018, published 2019)
